Laboratory results: US20070128217A1 (priority 2003, published 2007)

What was measured:
[1] = system: recombinant human anti-SARS-CoV antibody 03-018; assay type: binding; set-up: Binding of antibody 03-018 to linear peptides of the N protein of SARS-CoV Urbani / Binding of antibody 03-018 to looped/cyclic peptides of the N protein of SARS-CoV Urbani: unit not given here
[2] = system: rabbit serum obtained by immunizing a rabbit with the SARS-CoV strain Frankfurt 1; assay type: binding; set-up: Binding of a rabbit serum to linear peptides / Binding of a rabbit serum to looped peptides / Rabbit serum linear peptides / Rabbit serum looped peptides / Binding of a rabbit serum to linear peptides of protein N of SARS-CoV Urbani (Rabbit serum linear peptides) / Binding of a rabbit serum to looped/cyclic peptides of protein N of SARS-CoV Urbani (Rabbit serum looped peptides): unit not given here
[3] = system: antibodies in sera from SARS patients (sera 1a, 1b, 2, 6, 37, 62, London, SARS-yellow, SARS-green); assay type: binding, human; set-up: Binding of serum 6 to linear peptides of protein X1 of SARS-CoV Urbani / Binding of serum 37 to linear peptides of protein X1 of SARS-CoV Urbani / Binding of serum 6 to looped/cyclic peptide (PEPSCAN-ELISA) / Binding of serum 37 to looped/cyclic peptide (PEPSCAN-ELISA) / Binding of serum 37 to looped/cyclic peptides of protein X1 of SARS-CoV Urbani / Binding of serum 6 to linear peptides of protein X2 / Binding of serum 37 to linear peptides of protein X2 / Binding of serum 37 to looped/cyclic peptides of protein X2 of SARS-CoV Urbani / Binding of serum 6 to linear peptides of protein M of SARS-CoV Urbani / Binding of serum 37 to linear peptides of protein M of SARS-CoV Urbani / Binding of serum 6 to looped/cyclic peptides of protein M of SARS-CoV Urbani / Binding of serum 37 to looped/cyclic peptides of protein M of SARS-CoV Urbani / Binding of serum 6 to linear peptides of protein X3 of SARS-CoV Urbani / Binding of serum 37 to linear peptides of protein X3 of SARS-CoV Urbani / Binding of serum 37 to looped/cyclic peptides of protein X3 of SARS-CoV Urbani / Binding of serum 6 to linear peptides of protein X4 of SARS-CoV Urbani / Binding of serum 37 to linear peptides of protein X4 of SARS-CoV Urbani / Binding of serum 37 to looped/cyclic peptides of protein X4 of SARS-CoV Urbani / Binding of serum 6 to linear peptides of protein X5 of SARS-CoV Urbani / Binding of serum 37 to linear peptides of protein X5 of SARS-CoV Urbani / Binding of serum 37 to looped/cyclic peptides of protein X5 of SARS-CoV Urbani / Binding of serum 6 to linear peptides of protein N of SARS-CoV Urbani / Binding of serum 37 to linear peptides of protein N of SARS-CoV Urbani / Binding of serum 6 to linear peptide (PEPSCAN-ELISA) / Binding of serum 1a to looped/cyclic peptides of protein N of SARS-CoV Urbani / Binding of serum 1b to looped/cyclic peptides of protein N of SARS-CoV Urbani / Binding of serum 2 to looped/cyclic peptides of protein N of SARS-CoV Urbani / Binding of serum 6 to looped/cyclic peptides of protein N of SARS-CoV Urbani / Binding of serum 37 to looped/cyclic peptides of protein N of SARS-CoV Urbani / Binding of serum 62 to looped/cyclic peptides of protein N of SARS-CoV Urbani / Binding of serum London to looped/cyclic peptides of protein N of SARS-CoV Urbani / Binding of serum SARS-green to looped/cyclic peptides of protein N of SARS-CoV Urbani: unit not given here
[4] = system: control sera (pooled serum of ten healthy LUMC hospital workers; commercial negative donor pooled serum from the Dutch bloodbank); assay type: binding, human; set-up: Binding of Control serum LUMC to linear peptides / Binding of Control serum Blood-bank to linear peptides / Binding of Control serum LUMC to looped peptides / Binding of Control Serum Blood-Bank to Looped peptides / Binding of Control serum LUMC to linear peptides of the protein M of SARS-CoV Urbani / Binding of Control serum Blood-bank to linear peptides of the protein M of SARS-CoV Urbani / Binding of Control serum LUMC to looped peptides of the protein M of SARS-CoV Urbani / Binding of Control Serum Blood-Bank to Looped peptides of the protein M of SARS-CoV Urbani: unit not given here

With MDDFSRQLQNSMSGA the “Binding of antibody 03-018 to linear peptides of the N protein of SARS-CoV Urbani” value [1] was 0.2, the “Binding of antibody 03-018 to looped/cyclic peptides of the N protein of SARS-CoV Urbani” value [1] was 0.2 and the “Binding of a rabbit serum to linear peptides of protein N of SARS-CoV Urbani (Rabbit serum linear peptides)” value (“Binding … (Rabbit serum linear peptides)” for short) [2] was 0.2. The “Binding of a rabbit serum to looped/cyclic peptides of protein N of SARS-CoV Urbani (Rabbit serum looped peptides)” value [2] was 0.4, the “Binding of serum 1a to linear peptides of protein N of SARS-CoV Urbani” value [3] was 0.2 and the “Binding of serum 1a to looped/cyclic peptides of protein N of SARS-CoV Urbani” value [3] was 0.4. The “Binding of serum 1b to linear peptides of protein N of SARS-CoV Urbani” value [3] was 0.1, the “Binding of serum 1b to looped/cyclic peptides of protein N of SARS-CoV Urbani” value [3] was 0.1 and the “Binding of serum 2 to linear peptides of protein N of SARS-CoV Urbani” value [3] was 0.3. For the same sequence, the “Binding of serum 2 to looped/cyclic peptides of protein N of SARS-CoV Urbani” value [3] was 0.4, the “Binding of serum 6 to linear peptides of protein N of SARS-CoV Urbani” value [3] was 0.2 and the “Binding of serum 6 to looped/cyclic peptides of protein N of SARS-CoV Urbani” value [3] was 0.1. The “Binding of serum 37 to linear peptides of protein N of SARS-CoV Urbani” value [3] was 0.8, the “Binding of serum 37 to looped/cyclic peptides of protein N of SARS-CoV Urbani” value [3] was 0.4 and the “Binding of serum 62 to linear peptides of protein N of SARS-CoV Urbani” value [3] was 0.7. The “Binding of serum 62 to looped/cyclic peptides of protein N of SARS-CoV Urbani” value [3] was 0.4, the “Binding of serum London to linear peptides of protein N of SARS-CoV Urbani” value [3] was 0.8 and the “Binding of serum London to looped/cyclic peptides of protein N of SARS-CoV Urbani” value [3] was 0.3. The “Binding of serum SARS-green to linear peptides of protein N of SARS-CoV Urbani” value [3] was 0.6, the “Binding of serum SARS-green to looped/cyclic peptides of protein N of SARS-CoV Urbani” value [3] was 0.3 and the “Binding of serum SARS-yellow to linear peptides of protein N of SARS-CoV Urbani” value [3] was 0.7. For the same sequence, the “Binding of serum SARS-yellow to looped/cyclic peptides of protein N of SARS-CoV Urbani” value [3] was 0.2, the “Control Serum Blood-Bank Looped peptides” value [4] was 0.5 and the “Control serum Blood-bank linear peptides” value [4] was 1.0. The “Control serum LUMC linear peptides” value [4] was 0.7 and the “Control serum LUMC looped peptides” value [4] was 0.5.
NKEGIVWVATEGALN was tested, and the “Binding of antibody 03-018 to linear peptides of the N protein of SARS-CoV Urbani” value [1] was 0.1, the “Binding of antibody 03-018 to looped/cyclic peptides of the N protein of SARS-CoV Urbani” value [1] was 0.2 and the “Binding … (Rabbit serum linear peptides)” value [2] was 0.1. For the same sequence, the “Binding of a rabbit serum to looped/cyclic peptides of protein N of SARS-CoV Urbani (Rabbit serum looped peptides)” value [2] was 0.2, the “Binding of serum 1a to linear peptides of protein N of SARS-CoV Urbani” value [3] was 0.3 and the “Binding of serum 1a to looped/cyclic peptides of protein N of SARS-CoV Urbani” value [3] was 0.3. The “Binding of serum 1b to linear peptides of protein N of SARS-CoV Urbani” value [3] was 0.1, the “Binding of serum 1b to looped/cyclic peptides of protein N of SARS-CoV Urbani” value [3] was 0.2 and the “Binding of serum 2 to linear peptides of protein N of SARS-CoV Urbani” value [3] was 0.2. The “Binding of serum 2 to looped/cyclic peptides of protein N of SARS-CoV Urbani” value [3] was 0.4, the “Binding of serum 6 to linear peptides of protein N of SARS-CoV Urbani” value [3] was 0.2 and the “Binding of serum 6 to looped/cyclic peptides of protein N of SARS-CoV Urbani” value [3] was 0.2. For the same sequence, the “Binding of serum 37 to linear peptides of protein N of SARS-CoV Urbani” value [3] was 0.7, the “Binding of serum 37 to looped/cyclic peptides of protein N of SARS-CoV Urbani” value [3] was 0.6 and the “Binding of serum 62 to linear peptides of protein N of SARS-CoV Urbani” value [3] was 0.6. The “Binding of serum 62 to looped/cyclic peptides of protein N of SARS-CoV Urbani” value [3] was 0.4, the “Binding of serum London to linear peptides of protein N of SARS-CoV Urbani” value [3] was 0.4 and the “Binding of serum London to looped/cyclic peptides of protein N of SARS-CoV Urbani” value [3] was 0.3. For the same sequence, the “Binding of serum SARS-green to linear peptides of protein N of SARS-CoV Urbani” value [3] was 0.4, the “Binding of serum SARS-green to looped/cyclic peptides of protein N of SARS-CoV Urbani” value [3] was 0.3 and the “Binding of serum SARS-yellow to linear peptides of protein N of SARS-CoV Urbani” value [3] was 0.9. For the same sequence, the “Binding of serum SARS-yellow to looped/cyclic peptides of protein N of SARS-CoV Urbani” value [3] was 0.4, the “Binding of Control Serum Blood-Bank to Looped peptides” value [4] was 0.6 and the “Binding of Control serum Blood-bank to linear peptides” value [4] was 0.7. The “Binding of Control serum LUMC to linear peptides” value [4] was 0.7 and the “Binding of Control serum LUMC to looped peptides” value [4] was 0.6.
NKHIDAYKTFPPTEP was tested, and the “Binding of antibody 03-018 to linear peptides of the N protein of SARS-CoV Urbani” value [1] was 0.1, the “Binding of antibody 03-018 to looped/cyclic peptides of the N protein of SARS-CoV Urbani” value [1] was 0.2 and the “Binding … (Rabbit serum linear peptides)” value [2] was 0.0. The “Binding of a rabbit serum to looped/cyclic peptides of protein N of SARS-CoV Urbani (Rabbit serum looped peptides)” value [2] was 0.3, the “Binding of serum 1a to linear peptides of protein N of SARS-CoV Urbani” value [3] was 0.2 and the “Binding of serum 1a to looped/cyclic peptides of protein N of SARS-CoV Urbani” value [3] was 0.3. The “Binding of serum 1b to linear peptides of protein N of SARS-CoV Urbani” value [3] was 0.1, the “Binding of serum 1b to looped/cyclic peptides of protein N of SARS-CoV Urbani” value [3] was 0.1 and the “Binding of serum 2 to linear peptides of protein N of SARS-CoV Urbani” value [3] was 0.1. For the same sequence, the “Binding of serum 2 to looped/cyclic peptides of protein N of SARS-CoV Urbani” value [3] was 0.2, the “Binding of serum 6 to linear peptides of protein N of SARS-CoV Urbani” value [3] was 0.2 and the “Binding of serum 6 to looped/cyclic peptides of protein N of SARS-CoV Urbani” value [3] was 0.1. The “Binding of serum 37 to linear peptides of protein N of SARS-CoV Urbani” value [3] was 0.6, the “Binding of serum 37 to looped/cyclic peptides of protein N of SARS-CoV Urbani” value [3] was 0.4 and the “Binding of serum 62 to linear peptides of protein N of SARS-CoV Urbani” value [3] was 0.5. For the same sequence, the “Binding of serum 62 to looped/cyclic peptides of protein N of SARS-CoV Urbani” value [3] was 0.3, the “Binding of serum London to linear peptides of protein N of SARS-CoV Urbani” value [3] was 0.5 and the “Binding of serum London to looped/cyclic peptides of protein N of SARS-CoV Urbani” value [3] was 0.3. The “Binding of serum SARS-green to linear peptides of protein N of SARS-CoV Urbani” value [3] was 0.3, the “Binding of serum SARS-green to looped/cyclic peptides of protein N of SARS-CoV Urbani” value [3] was 0.3 and the “Binding of serum SARS-yellow to linear peptides of protein N of SARS-CoV Urbani” value [3] was 0.6. The “Binding of serum SARS-yellow to looped/cyclic peptides of protein N of SARS-CoV Urbani” value [3] was 0.2, the “Control Serum Blood-Bank Looped peptides” value [4] was 0.5 and the “Control serum Blood-bank linear peptides” value [4] was 0.6. For the same sequence, the “Control serum LUMC linear peptides” value [4] was 0.5 and the “Control serum LUMC looped peptides” value [4] was 0.4.
